According to patent publication US8858994B2, “Pharmaceutical formulation comprising ezetimibe” (Ratiopharm GmbH, priority 2007, dated 2014):

What was measured:
Format in all cases: physicochemical
[1] = Particle size determination according to Wet Method (Malvern laser diffraction); conditions: dioctyl sulfosuccinate sodium salt in n-hexane
Description: b) Particle Size Determination According to “Wet Method”. Ezetimibe Samples PSD Measurement by Malvern Laser Diffraction
A Malvern Laser Diffraction instrument was used to characterize the particle size distribution of ezetimibe. A Mastersizer S model equipped with a small cell dispersion unit MSI with a digital dispersion unit controller was used. The measurement was done using range lens 300RF (working range […]), beam length: 2.40 mm and presentation 3NHE. In this case, a solution of dioctyl sulfosuccinate sodium salt in n-hexane was used as a dilution medium. The measurement was started after 1 minute of recirculation after suspension addition into measurement cell at speed rate 2000+−10 rpm. The suspension was prepared of ˜0.1 g sample in solution 0.065% dioctyl sulfosuccinate sodium salt in n-hexane by vortex for 10 seconds and by sonication for 30 seconds. According to the accepted rules of Good Manufacture Procedures, the sample of ezetimibe is preferably measured after a successful blank measurement (% obscuration NMT 0.1%) is performed.

[2] = Particle size determination according to Dry Powder Method (Malvern Master sizer S); conditions: ezetimibe used in Examples 1, 3 and 4, in µm (unit assumed)
Description: a) Particle Size Determination According to “Dry Powder Method”.
Typical Instrumental Conditions:
Pour the small volume sample in Drypowder Sampler unit. Set the feed rate & air pressure with the help of adjustable knob. And start the measurement until to get the obscuration between 15 and 30. Pass the laser beam through the sample cell to measure the particle size distribution and record the data into a histogram then report the results at 10%, 50% and 90% level of particles size distribution.
Note: Ensure the Laser power should be more than 60%.

[3] = Determination of specific surface area (BET, single point); conditions: BET, single point; Sample no. 1 of example 5b)
Description: The specific surface area is determined by […] using BET calculation.
Specific surface area is measured by using the following Parameters: • Instrument: Pulse Chemisorbs 2700 (micromeritics) • Degassing: With out degassing • Sensitivity: No • Calculations: BET • Type: Single point system • Points: One • Sample cell: 6 cm^3 Procedure: • Sample no. 1 of example 5b) of known weight is taken in the sample transparent U shape glass tube. The sample is […] to remove all atmosphere at liquid nitrogen temperature (−196° C.). This is achieved by passing nitrogen through the sample tube, which is placed in a liquid nitrogen bath (−196° C.). The value divided by the weight of the catalyst/sample taken in the tube gives the surface area of the sample. BET Surface Area: • Surface area determination is an important factor in determining the catalyst performance, a method of assessing the efficiency of the catalyst support and promoter. […]
Is a straight line (in the range of P/P0:0.05-0.3) with slope (C−1)/(VmC) and intercept 1/VmC. By knowing these intercept and slope values calculated and further specific surface area can be calculated as follows Specific surface area (m^2/g)={[Vm×NA]/[22414×Wt]}×Am • Where, • Vm=monolayer volume in ml at STP • NA=Avogadro number • Wt=Weight of the catalyst • Am=mean cross sectional area of adsorbate molecule ([…] for N2

| d(0.1) [1] | d(0.5) [1] | d(0.9) [1] | d(0.1) [2] | d(0.5) [2] | d(0.9) [2] | Specific surface area [3] | Compound |
| --- | --- | --- | --- | --- | --- | --- | --- |
| 2.02 μm | 4.11 μm | 8.21 μm |  |  |  |  | O=C1[C@H](CC[C@H](O)c2ccc(F)cc2)[C@@H](c2ccc(O)cc2)N1c1ccc(F)cc1 [Sample 4] |
| 2.70 μm | 6.76 μm | 16.47 μm |  |  |  |  | O=C1[C@H](CC[C@H](O)c2ccc(F)cc2)[C@@H](c2ccc(O)cc2)N1c1ccc(F)cc1 [Sample 5] |
|  |  |  | 3.349 | 6.356 | 11.429 |  | O=C1[C@H](CC[C@H](O)c2ccc(F)cc2)[C@@H](c2ccc(O)cc2)N1c1ccc(F)cc1 [Sample 3 of Example 5a] |
|  |  |  |  |  |  | 1.24 m^2/gram | O=C1[C@H](CC[C@H](O)c2ccc(F)cc2)[C@@H](c2ccc(O)cc2)N1c1ccc(F)cc1 [ezetimibe, 1-(4-fluorophenyl)-3(R)-[3-(4-fluorophenyl)-3(S)-hydroxypropyl]-4(S)-(4-hydroxyphenyl)-2-azetidinone] |
